In patent US5567704A, “R-enatiomerically pure hydroxylated xanthine compounds to treat baldness” (priority 1995, dated 1996):

Experiments:
stromelysin/PUMP-1 = assay: PUMP-1 activity induced by IL-1; format: cell-based; conditions: induced by 100 U/ml of IL-1
Excerpt: Metalloproteases mediate tissue damage such as glomerular diseases of the kidney, joint destruction in arthritis, and lung destruction in emphysema, and play a role in tumor metastases. Three examples of metalloproteases include a 92 kD type V gelatinase induced by TNF, IL-1 and PDGF plus bFGF, a 72 kD type IV collagenase that is usually constitutive and induced by TNF or IL-1, and a stromelysin/PUMP-1 induced by TNF and IL-1. The inventive compounds can inhibit TNF or IL-1 induction of the 92 kD type V gelatinase inducable metalloprotease. Moreover, CT 1501R reduced PUMP- 1 activity induced by 100 U/ml of IL-1 to 15% of its control levels. […] Accordingly, the inventive compounds prevent induction of certain metalloproteases induced by IL-1 or TNF and are not involved with constitutively produced proteases (e.g., 72 kD type IV collagenase) involved in normal tissue remodeling.

thymocytes = assay: thymocyte costimulator assay (ConA and IL-1α or IL-2); format: cell-based, mice; conditions: drug added two hours prior, FIG. 3
Procedure: A thymocyte costimulator assay is conducted to evaluate the inventive compounds to inhibit activation and proliferation of thymocytes caused by stimulation with Con A and interleukin-1 (IL-1), or […]. Thymuses are obtained from mice (e.g., female Balb/C mice) and the thymuses are removed and dissociated into culture media (e.g., RPMI 1640 without serum supplementation). The dissociated thymus tissue and cell suspension is transferred to centrifuge tubes and allowed to settle, washed with HBSS and resuspended in serum-supplemented culture media (e.g., RPMI 1640 with 10% fetal calf serum). Any contaminating red cells are lysed, and viable cells are resuspended and counted. Thymocytes are plated (e.g., 96-well plates at a density of 2×10^5 cells/well) and a stimulating agent, such as Con A, IL-1 (e.g., IL-1α) or IL-2 is added to the well. The cells are incubated for 4 days at 37° C. On the fourth day, the cells are pulsed with tritiated thymidine and cell proliferation determined. Inventive compounds are added at the time of stimulating agent addition.
CT1501R was added to the cells at the doses indicated two hours prior to activation with ConA and IL-1α or IL-2. Background counts were less than 200 cpm.

[1] = test system: Balb/c mice given a lethal dose of endotoxin; assay: endotoxin induced lethality in mice (survival); format: in vivo, mouse; conditions: for cumulative percent survival: 72 hours post LPS
Procedure: (§1) Animals were treated with 10 μg/gm of LPS (i.v.) Immediately following the LPS (t=0), 2 hrs after the LPS (t=2) or 4 hrs following LPS (t=4) the mice were treated with their first treatment of CT1501R (100 mg/kg, i.p.). The mice were treated with CT1501R three times per day thereafter, and animal survival was monitored.
(§2) This example illustrates the effect of CT1501R on survival in mice given a lethal dose of endotoxin. We determined if CT1501R protects against endotoxin induced lethality in a murine model. Septic shock was modeled by endotoxin injection of 6-8 week old female Balb/c mice similar to previously published reports (Ashkenazi et al. Proc. Natl. Acad. Sci. U.S.A. 88: 10535-10539, 1991.) under protocols approved by the Animal Use Committee of the Biomembrane Institute, Seattle, Wash. Animals were injected intravaneously (i.v.) with an approximate LD100 dose (10 μg) of Salmonella abortus equi-derived endotoxin (Sigma Chemical Co., L-1887) in phosphate buffered saline (PBS). […] Control mice were injected at the same times with a similar volume of vehicle control (PBS). Survival was followed for at least 72 hours.
(§3) Ten mice were treated each with PBS alone or CT1501R alone on the same schedule as the experimental mice. […] Endotoxin survival data were summarized from a total of six (6) independent experiments. Summary Table 1 details the results of each of the six experiments. In FIG. 5, each time point represents a minimum of three (3) experiments comprising at least twenty (20) mice per group. A probability analysis of the survival data using a Fisher's Exact One Tailed Test is given as Table 3. Significant protection was conferred if CT1501R was administered immediately after the LPS treatment. The cumulative percent survival at 72 hours post LPS treatment was 60% compared to 7% for the LPS-only treated animals (p=<0.0005; Table 3).

[2] = endotoxin induced lethality in mice (survival); format: in vivo, mouse; conditions: mouse, in vivo, ip; CT1501R alone, no LPS, ten mice, same schedule
Procedure: as §1, §2, §3

C[C@@H](O)CCCCn1c(=O)c2c(ncn2C)n(C)c1=O [CT1501R, (R)-1-(5-hydroxyhexyl)-3,7-dimethylxanthine]
PUMP-1 activity, % of control levels (stromelysin/PUMP-1): 15%
inhibition of thymocyte proliferation (thymocytes): inhibited thymocyte proliferation in a dose-response manner
cumulative percent survival ([1]; CT1501R four hours after LPS): 37%
cumulative percent survival ([1]; CT1501R immediately after LPS): 60%
cumulative percent survival ([1]; CT1501R two hours after LPS): 55%
adverse effects ([1]; CT1501R alone, no LPS, ten mice, same schedule): no adverse effects noted
Survival (Number Surviving/Total) ([1]; Expt. 1, CT-1501R t = 0 Hr post LPS, 24 Hr post LPS): 4/5
Survival (Number Surviving/Total) ([1]; Expt. 1, CT-1501R t = 0 Hr post LPS, 48 Hr post LPS): 4/5
Survival (Number Surviving/Total) ([1]; Expt. 1, CT-1501R t = 0 Hr post LPS, 72 Hr post LPS): 4/5
Survival (Number Surviving/Total) ([1]; Expt. 1, CT-1501R t = 2 Hr post LPS, 24 Hr post LPS): 4/5
Survival (Number Surviving/Total) ([1]; Expt. 1, CT-1501R t = 2 Hr post LPS, 48 Hr post LPS): 3/5
Survival (Number Surviving/Total) ([1]; Expt. 1, CT-1501R t = 2 Hr post LPS, 72 Hr post LPS): 3/5
Survival (Number Surviving/Total) ([1]; Expt. 2, CT-1501R t = 0 Hr post LPS, 24 Hr post LPS): 5/5
Survival (Number Surviving/Total) ([1]; Expt. 2, CT-1501R t = 0 Hr post LPS, 48 Hr post LPS): 5/5
Survival (Number Surviving/Total) ([1]; Expt. 2, CT-1501R t = 0 Hr post LPS, 72 Hr post LPS): 5/5
Survival (Number Surviving/Total) ([1]; Expt. 2, CT-1501R t = 2 Hr post LPS, 24 Hr post LPS): 5/5
Survival (Number Surviving/Total) ([1]; Expt. 2, CT-1501R t = 2 Hr post LPS, 48 Hr post LPS): 5/5
Survival (Number Surviving/Total) ([1]; Expt. 2, CT-1501R t = 2 Hr post LPS, 72 Hr post LPS): 5/5
Survival (Number Surviving/Total) ([1]; Expt. 3, CT-1501R t = 4 Hr post LPS, 24 Hr post LPS): 5/5
Survival (Number Surviving/Total) ([1]; Expt. 3, CT-1501R t = 4 Hr post LPS, 48 Hr post LPS): 3/5
Survival (Number Surviving/Total) ([1]; Expt. 3, CT-1501R t = 4 Hr post LPS, 72 Hr post LPS): 3/5
Survival (Number Surviving/Total) ([1]; Expt. 4, CT-1501R t = 4 Hr post LPS, 24 Hr post LPS): 7/10
Survival (Number Surviving/Total) ([1]; Expt. 4, CT-1501R t = 4 Hr post LPS, 48 Hr post LPS): 5/10
Survival (Number Surviving/Total) ([1]; Expt. 4, CT-1501R t = 4 Hr post LPS, 72 Hr post LPS): 5/10
Survival (Number Surviving/Total) ([1]; Expt. 5, CT-1501R t = 0 Hr post LPS, 24 Hr post LPS): 9/10
Survival (Number Surviving/Total) ([1]; Expt. 5, CT-1501R t = 0 Hr post LPS, 48 Hr post LPS): 7/10
Survival (Number Surviving/Total) ([1]; Expt. 5, CT-1501R t = 0 Hr post LPS, 72 Hr post LPS): 3/10
Survival (Number Surviving/Total) ([1]; Expt. 5, CT-1501R t = 2 Hr post LPS, 24 Hr post LPS): 5/10
Survival (Number Surviving/Total) ([1]; Expt. 5, CT-1501R t = 2 Hr post LPS, 48 Hr post LPS): 3/10
Survival (Number Surviving/Total) ([1]; Expt. 5, CT-1501R t = 2 Hr post LPS, 72 Hr post LPS): 3/10
Survival (Number Surviving/Total) ([1]; Expt. 5, CT-1501R t = 4 Hr post LPS, 24 Hr post LPS): 7/10
Survival (Number Surviving/Total) ([1]; Expt. 5, CT-1501R t = 4 Hr post LPS, 48 Hr post LPS): 4/10
Survival (Number Surviving/Total) ([1]; Expt. 5, CT-1501R t = 4 Hr post LPS, 72 Hr post LPS): 2/10
Survival (Number Surviving/Total) ([1]; Expt. 6, CT-1501R t = 4 Hr post LPS, 24 Hr post LPS): 3/10
Survival (Number Surviving/Total) ([1]; Expt. 6, CT-1501R t = 4 Hr post LPS, 48 Hr post LPS): 3/10
Survival (Number Surviving/Total) ([1]; Expt. 6, CT-1501R t = 4 Hr post LPS, 72 Hr post LPS): 3/10
survival compared with published results of Genentech's bifunctional TNF receptor ([1]; drug simultaneously or two hours after lethal LPS, FIGS. 15 and 16): consistently was better at improving survival than Genentech's TNF receptor
Cumulative survival (Number Surviving/Total) ([1]; n = 3 expts, CT-1501R t = 0 Hr post LPS, 24 Hr post LPS): 18/20
Cumulative survival (Number Surviving/Total) ([1]; n = 3 expts, CT-1501R t = 0 Hr post LPS, 48 Hr post LPS): 16/20
Cumulative survival (Number Surviving/Total) ([1]; n = 3 expts, CT-1501R t = 0 Hr post LPS, 72 Hr post LPS): 12/20
Cumulative survival (Number Surviving/Total) ([1]; n = 3 expts, CT-1501R t = 2 Hr post LPS, 24 Hr post LPS): 14/20
Cumulative survival (Number Surviving/Total) ([1]; n = 3 expts, CT-1501R t = 2 Hr post LPS, 48 Hr post LPS): 11/20
Cumulative survival (Number Surviving/Total) ([1]; n = 3 expts, CT-1501R t = 2 Hr post LPS, 72 Hr post LPS): 11/20
Cumulative survival (Number Surviving/Total) ([1]; n = 4 expts, CT-1501R t = 4 Hr post LPS, 24 Hr post LPS): 22/35
Cumulative survival (Number Surviving/Total) ([1]; n = 4 expts, CT-1501R t = 4 Hr post LPS, 48 Hr post LPS): 15/35
Cumulative survival (Number Surviving/Total) ([1]; n = 4 expts, CT-1501R t = 4 Hr post LPS, 72 Hr post LPS): 13/35
survival [2]: 100%
